# Measured values reported in patent publication EP0171342A1, “Substituted 2-(1-amino-akylidenyl)1,3-indane diones, process for their preparation and their therapeutical use” (priority 1984, dated 1986).
# Read-outs that look alike come from different tables or passages of the source.
# Experiments:
# [1] = tested on: poumon de cobaye isolé perfusé; assay: Bronchodilator activity: isolated perfused guinea pig lung contracted by methacholine; settings: flow of Tyrode solution, lung contracted by 0,05 microg/ml methacholine; read-out: concentration qui augmente ce débit de 50%
# Text: L'activité bronchodilatatrice a été déterminée in vitro par la mesure du débit d'une solution de Tyrode à travers un poumon de cobaye isolé perfusé, contracté par l'addition au fluide de perfusion de 0,05 microg/ml de méthacholine. Les COR3760, COR3789, COR3792, COR4003, COR4008, COR4010 et COR4014 utilisés respectivement aux concentrations de 50, 50, 100, 10, 50, 50 et 10 microg/ml augmentent ce débit de 50%. L'aminophylline entraine cette même activité à la concentration de 100 microg/ml.
# [2] = tested on: strips de veines mésentériques porte de rats normotendus; assay: Calcium antagonist activity: spontaneous contractions of rat portal mesenteric vein strips; settings: 10 microg/ml
# [3] = tested on: segments d'iléon de cobaye isolés; assay: Anticholinergic activity: acetylcholine-induced contractions of isolated guinea pig ileum; settings: Cavia porcellus; contractions induced by 0,1 microg/ml acetylcholine; read-out: concentration qui inhibe ces contractions de 80%
# Text: L'activité anticholinergique a été appréciée par la mesure des contractions induites par 0,1 microg/ml d'acétylcholine sur des segments d'iléon de cobaye isolés. Les COR3760, COR3789, COR3792, COR4003, COR4008, COR4010, COR4014 utilisés respectivement aux concentrations de 50, 25, 25, 50, 25, 10, 25 microg/ml inhibent ces contractions de 80%.
# [4] = tested on: rat soumis à une surcharge hydrique; assay: Diuretic activity in rats given a water overload, oral; type: in vivo; settings: rat, water overload, oral; for response vs control in vivo at 20 mg/kg: read-out: facteur multipliant l'excrétion urinaire du sodium
# Method: L'activité diurétique a été déterminée sur plusieurs modèles expérimentaux. Chez le rat soumis à une surcharge hydrique, administrés par voie orale à la dose de 20 mg/kg, le COR3760, le COR3789, le COR3792, le COR4002, le COR4003, le COR4009, le COR4010, le COR4012 et le COR4014 multiplient l'excrétion urinaire du sodium par respectivement un facteur 2,9 - 3,1 - 5,9 - 2,6 - 7,2 - 3,5 - 3,8 - 2,9 - 2,4. Administrés à la dose de 10 mg/kg, dans les mêmes conditions, les COR3760, COR3789, COR3792, COR4003 et COR4010 multiplient l'excrétion sodique par respectivement 2,3 - 2,9 - 2,8 - 2,4 et 2,5. La spironolactone multiplie quant à elle l'excrétion sodique d'un facteur 3,6 à la dose de 20 mg/kg. Administré à la dose de 5 mg/kg dans les mêmes conditions, le COR3792 multiplie l'excrétion sodique par 3,3. Administré par voie orale chez le rat ou la souris soumis à une surcharge saline, le COR3760 augmente l'excrétion urinaire volumétrique mesurée à la sixième heure de respectivement 49, 119 et 134% chez la souris et 28, 84 et 116% chez le rat après administration de 10, 20, et 40 mg/kg. Le COR3760 a été administré par voie orale au rat soumis à une surcharge hydrique et l'excrétion urinaire volumétrique, le sodium et le potassium excrétés ont été mesurés sur une période de 6 heures; ces paramètres ont varié de respectivement +17%, +102%, +165% à 10 mg/kg, +19%, +147%, +180% à 20 mg/kg et +36%, +415% et +239% à 40 mg/kg; le rapport Na/K passe de 0,56 chez les animaux témoins à 0,4 à 10 mg/kg, 0,49 à 20 mg/kg et 0, 8 à 40 mg/ kg. Au cours d'une seconde expérimentation, le COR3760 a entrainé des variations de +19%, +157%, +70% à 40 mg/kg, +19%, +319%, +90% à 60 mg/kg et +29%, +472% et +77% à 80 mg/kg; le rapport Na/K passe de 0,59 chez les animaux témoins à 0,88 à 40, 1,15 à 60 et 1,88 à 80 mg/kg.
# [5] = tested on: oreillette gauche de cobaye; assay: Calcium antagonist activity: electrically stimulated guinea pig left atrium; settings: 150 beats/min, low-calcium (0,6 mM) Tyrode solution; read-out: concentration qui inhibe de 50% l'augmentation de la force de contraction induite par l'addition de 0,6 mM de calcium
# Method: L'activité anticalcique a été déterminée in vitro sur deux modèles expérimentaux.
# Sur oreillette gauche de cobaye stimulée électriquement à 150 battements/mn dans une solution de Tyrode pauvre en calcium (0,6 mM), les COR3789, COR3792, COR4009, COR4010 et COR4011 employés respectivement à 25, 100, 50, 10 et 25 microg/ml inhibent de 50% l'augmentation de la force de contraction induite par l'addition de 0,6 mM de calcium.
# [6] = tested on: oedème induit par l'injection intraplantaire de carragénine chez le rat; assay: Anti-inflammatory activity: carrageenan paw oedema in rats; type: in vivo; settings: oral 1 h before carrageenan, measured 3 h after
# Method: L'activité antiinflammatoire a été déterminée chez le rat par la mesure de l'inhibition de l'oedème induit par l'injection intraplantaire de 0,1 ml d'une suspension à 1% de carragénine chez le rat. Les produits à tester sont administrés par voie orale lh avant l'injection de carragénine et la mesure est réalisée 3h après cette injection. Les COR3789, COR3792, COR4003, COR4008 et COR4010 administrés à 10b mg/kg entrainent respectivement 43, 42, 41, 38 et 39% d'inhibition. Administré à 200 mg/kg, le COR3773 entraine 53% d'inhibition. L'aspirine administrée dans les mêmes conditions à 150 mg/kg entraine 40% d'inhibition de l'oedème.
# [7] = tested on: souris; assay: Acute toxicity (mortality, LD50) in mice; type: in vivo; settings: mouse
# [8] = tested on: souris; assay: Antidepressant activity: inhibition of reserpine-induced ptosis in mice; type: in vivo; settings: mouse, oral 50 mg/kg 90 min before reserpine 5 mg/kg i.p.; index 0 (maximum ptosis) to 6 (no ptosis)
# Method: L'activité antidépressive a été déterminée dans le test de potentialisation de la toxicité de la yohimbine et dans le test de l'inhibition du ptosis induit par la réserpine.
# On injecte par voie sous cutanée à des souris, lh avant l'administration par voie orale du produit à tester, une dose non léthale de yohimbine soit 15 mg/kg. Le COR3760 administré à la dose de 100 mg/kg entraine 80% de mortalité dans ces conditions. Des souris reçoivent par voie orale le produit à tester 90 mn avant l'injection par voie intrapéritonéale de 5 mg/kg de réserpine solubilisée. On cote le ptosis selon un index allant de 0 à 6, la cote 0 correspondant à un ptosis maximum et la cote 6 à l'absence de ptosis. Les COR3760 et COR4011 conduisent dans les conditions de l'expérience à un ptosis coté à 4 pour une dose de respectivement 200 et 50 mg/kg.
# [9] = biological target: oreillettes droites de cobaye (Cavia porcellus, UniProt P47747); assay: Anti-H2 activity: histamine-induced chronotropic effect on unstimulated guinea pig right atria
# [10] = tested on: rat Wistar soumis à une surcharge saline; assay: Diuretic activity in selected Wistar rats given a saline overload (modified Wiebelhaus test); type: in vivo
# Method: L'activité diurétique des produits selon l'invention a été également déterminée chez le rat Wistar soumis à une surcharge saline selon une modification du test décrit par Wiebelhaus et coll., Fed. Proc., 1960, 19, 364, en procédant à une sélection des animaux. A la dose de 20 mg/kg, les COR4003, COR4008, COR4009, COR4010, COR4011, COR4012, COR4014, COR4016, COR4021, COR4025 augmentent l'excrétion urinaire volumétrique mesurée au bout de 6 heures de respectivement 56, 54, 65, 95, 73, 54, 33, 40, 99 et 92 %. L'excrétion urinaire du sodium augmente de respectivement 56, 24, 42, 59, 43, 33, 29, 43, 31, 83, 26, 99, 40 % toujours à cette dose pour les COR4003, COR4008, COR4009, COR4010, COR4011, COR4012, COR4014, COR4016, COR4017, COR4021, COR4023, COR4025 et COR4026. Le rapport Na/K demeure la plupart du temps inchangé. Testé dans les mêmes conditions le furosémide, administré à la dose de 20 mg/kg entraine 63% d'augmentation de l'excrétion urinaire volumétrique et 53% d'augmentation de l'excrétion urinaire du sodium.
# [11] = tested on: iléon de cobaye; assay: Spasmolytic activity: guinea pig ileum contractions induced by transmural stimulation; settings: 2 microg/ml, oxygenated Krebs solution at 32°C; for inhibition at 2 µg/mL: read-out: inhibition de ces contractions
# Method: L'activité spasmolytique a été déterminée in vitro par la mesure de l'effet du produit à tester sur les contractions de l'iléon de cobaye induites par stimulation transmurale dans une solution de Krebs oxygénée à 32°C. Le COR4010 et le COR3773 utilisés à la concentration de 2 microg/ml entrainent 50% d'inhibition de ces contractions.
# [12] = tested on: souris; assay: Anticonvulsant activity: bicuculline-induced convulsions in mice; type: in vivo; settings: mouse, i.p., 100 mg/kg
# Method: L'activité anticonvulsivante est également déterminée dans le test des inhibitions des convulsions induites par la bicuculline. Des souris reçoivent par voie intrapéritonéale le produit à tester, puis 30 mn et 5 heures plus tard, deux injections séparées de 0,5 mg de bicuculline. […] Les résultats de ce test sont le reflet d'une activité gabaergique directe.
# [13] = tested on: souris; assay: Anticonvulsant activity: maximal electroshock convulsions in mice; type: in vivo; settings: mouse, oral, 100 mg/kg, one hour after administration
# Text: L'activité anticonvulsivante est appréciée dans le test de la prévention des convulsions induites par des électrochocs d'intensité maximale.
# [14] = 6 h, read-out: augmentation de l'excrétion urinaire volumétrique mesurée au bout de 6 heures
# [15] = read-out: augmentation de l'excrétion urinaire du sodium
# oreillettes droites de cobaye, sequence (P47747 whole entry): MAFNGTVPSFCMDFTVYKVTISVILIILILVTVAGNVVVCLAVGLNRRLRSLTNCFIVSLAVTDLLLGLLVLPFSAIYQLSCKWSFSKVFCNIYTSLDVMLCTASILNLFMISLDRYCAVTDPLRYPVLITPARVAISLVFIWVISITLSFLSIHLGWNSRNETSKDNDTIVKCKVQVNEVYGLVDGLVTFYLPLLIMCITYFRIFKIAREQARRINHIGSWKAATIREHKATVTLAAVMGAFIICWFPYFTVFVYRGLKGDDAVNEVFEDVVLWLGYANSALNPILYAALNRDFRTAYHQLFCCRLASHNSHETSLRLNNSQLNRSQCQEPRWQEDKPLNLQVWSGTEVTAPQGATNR
SMILES,EC50 [1],"inhibition de l'augmentation, induite par le calcium, des contractions spontanées [2]",IC80 [3],facteur multipliant l'excrétion sodique ([4]; 10 mg/kg),response vs control in vivo at 20 mg/kg [4],IC50 [5],inhibition de l'oedème ([6]; dose 10b mg/kg [sic]),"mortalité ([7]; intraperitoneal, 200 mg/kg)","mortalité ([7]; oral, 300 mg/kg)",further results
"CCNC(C)=C1C(=O)c2ccccc2C1=O [COR3789, (Ethylamino-1 éthylidène)-2 indanedione-1,3]",50 µg/mL,inhibent l'augmentation,25 µg/mL,"2,9",310%,25 µg/mL,43%,aucune mortalité,aucune mortalité,
"CC(NCC1CC1)=C1C(=O)c2ccccc2C1=O [COR4011, (Cyclopropylméthylamino-1 éthylidényl)-2 indanedione-1,3]",,inhibent l'augmentation,,,,25 µg/mL,,aucune mortalité,aucune mortalité,"ptosis coté [8]: 4; effet chronotrope négatif intrinsèque ([9]; at the concentration inhibiting the histamine effect by 50 % (COR4003 100, COR4011 50 microg/ml)): ne présentant pas d'effet chronotrope négatif intrinsèque; IC50 ([9]; read-out: concentration qui inhibe de 50 % cet effet chronotrope, chronotropic effect induced by 5 microg/ml histamine): 207 µM; change in vivo at 20 mg/kg [10, 14]: 73%; change in vivo at 20 mg/kg [10, 15]: 43%"
"CCCCNC(C)=C1C(=O)c2ccccc2C1=O [COR4010, (Butylamino-1 éthylidényl)-2 indanedione-1,3]",50 µg/mL,inhibent l'augmentation,10 µg/mL,"2,5",380%,10 µg/mL,39%,aucune mortalité,aucune mortalité,"change in vivo at 20 mg/kg [10, 14]: 95%; change in vivo at 20 mg/kg [10, 15]: 59%; inhibition at 2 µg/mL [11]: 50%"
"COc1ccc(Cc2nccc3cc(OC)c(OC)cc23)cc1OC [papavérine, reference compound]",,,,,,,,,,inhibition de ces contractions [11]: la même activité
"CC(NC(C)C)=C1C(=O)c2ccccc2C1=O [COR3792, (Isopropylamino-1 éthylidène)-2 indanedione-1,3]",100 µg/mL,,25 µg/mL,"2,8",590%,100 µg/mL,42%,aucune mortalité,aucune mortalité,"facteur multipliant l'excrétion sodique ([4]; 5 mg/kg): 3,3"
"CCCC(CCC)C(=O)O [valproate de sodium, reference compound]",,,,,,,,,,inhibition des convulsions induites par la bicuculline ([12]; first bicuculline injection (30 min later)): inhibe les convulsions induites par la première injection; inhibition des convulsions induites par la bicuculline ([12]; second bicuculline injection (5 hours later)): sans inhiber celles induites par la deuxième
"CCCC(C)(COC(N)=O)COC(N)=O [méprobamate, reference compound]",,,,,,,,,,prévention des convulsions induites par des électrochocs d'intensité maximale [13]: on n'observe plus de convulsions
"CNC(C)=C1C(=O)c2ccc(Cl)cc2C1=O [COR3773, Chloro-5 (méthylamino-1 éthylidène)-2 indanedione-1,3]",,,,,,,,aucune mortalité,aucune mortalité,inhibition at 2 µg/mL [11]: 50%; inhibition de l'oedème ([6]; 200 mg/kg): 53%
